{"source": "patent US12697326B2", "about": "“Methods of treating hepatic encephalopathy” (SALIX PHARMACEUTICALS, INC., priority 2008, dated 2026)", "key": {"[1]": {"conditions": "human, in vivo"}, "[2]": {"test_system": "critical flicker frequency in subjects with HE", "experiment": "Critical flicker frequency (CFF) test, change from baseline, first study", "format": "in vivo, human", "protocol": "The critical flicker frequency (CFF) was assessed for each subject using a specialized CFF instrument. The CFF is the frequency at which the subject observes a constant light transition to a flickering light and is measured in Hertz (Hz). CFF is an objective assessment of mental status.\nThe CFF was measured on a continuous scale and was the mean of 8 separate fusion-to-flicker transition tests performed in rapid succession.\nMean values and mean changes from baseline in blood ammonia concentration and critical flicker frequency values were collected. Analyses of blood ammonia concentrations and critical flicker frequency values were based upon quantitative values (not qualitative grades). Treatment differences for mean change from baseline in these parameters was estimated using a mixed effects model with fixed effects for time and baseline value.\nA critical flicker frequency (CFF) assessment, a recognized quantitative measure of CNS dysfunction, was an efficacy endpoint in the first study. CFF tests utilize the correlation between cerebral processing of oscillatory visual stimuli and CNS impairment due to increased HE severity.^10,11,12,13 This test identifies a frequency at which a flickering light is perceived as steady. A decline in this frequency has been associated with increasing severity of HE. Likewise, elevation in blood ammonia, another endpoint in the first study, is a quantitative assessment associated with the CNS effects underlying overt HE."}, "[3]": {"test_system": "liver transplant patients with HE", "experiment": "Chart review of 39 liver transplant patients with HE Conn scores of 2", "format": "in vivo, human", "conditions": "24 lactulose, 15 rifaximin"}, "[4]": {"test_system": "HE-related hospitalization in subjects with hepatic encephalopathy (HE)", "experiment": "Time to first HE-related hospitalization, first study", "format": "in vivo, human", "conditions": "for Cummulative number of events / Number of events / Probability of no HE-related hospitalization: ITT", "from_the_text": "Time to first HE-related hospitalization was computed as the number of days from the first dose of rifaximin to the first hospitalization for an HE related event. The analysis of time to first HE-related hospitalization was based on the comparison of time to hospitalization between rifaximin and placebo.\nFIG. 9 illustrates time to first HE-related hospitalization (e.g., hospitalization directly resulting from HE or hospitalization caused by HE) by treatment group in the ITT population in the first study. Table 19 presents estimates of the proportions of subjects who had their first HE-related hospitalization over the course of the Treatment Period and results of statistical analyses. Subjects who discontinued prior to hospitalization due to HE and prior to completion of the 6-month treatment period were censored at the time of discontinuation. […] This hazard ratio represents a 50% reduction, when compared with placebo, in the risk of hospitalization due to HE during the 6-month treatment period.\nNote for FIG. 9, the survival distribution estimate on y-axis represents the proportion of subjects without HE-related hospitalization. Dashed line represents rifaximin group and solid line represents placebo group. Open circles and open triangles represent censored subjects. Subjects who discontinued prior to hospitalization due to HE and prior to completion of the 6-month treatment period were censored at the time of discontinuation. Hepatic encephalopathy-related hospitalization was recorded on the HE-related hospitalization CRF."}, "[5]": {"conditions": "550 mg BID, Baseline to Day 140"}, "[6]": {"conditions": "first HE-related hospitalization, Table 4, 550 mg BID, N = 140, Days >=168"}, "[7]": {"conditions": "first HE-related hospitalization, Table 4; 550 mg BID; N = 140; Days [0-28)"}, "[8]": {"conditions": "first HE-related hospitalization, Table 4, 550 mg BID, N = 140, Days [28-56]"}, "[9]": {"conditions": "first HE-related hospitalization, Table 4; 550 mg BID; N = 140; Days [56-84)"}, "[10]": {"conditions": "first HE-related hospitalization, Table 4; 550 mg BID; N = 140; Days [84-140)"}, "[11]": {"conditions": "first HE-related hospitalization, Table 4; 550 mg BID; N = 140; Days [140-168)"}, "[12]": {"conditions": "first HE-related hospitalization, Table 17, 550 mg BID, N = 140, Days >=168"}, "[13]": {"conditions": "first HE-related hospitalization, Table 17; 550 mg BID; N = 140; Days [0-28)"}, "[14]": {"conditions": "first HE-related hospitalization, Table 17; 550 mg BID; N = 140; Days [28-56)"}, "[15]": {"conditions": "first HE-related hospitalization, Table 17; 550 mg BID; N = 140; Days [56-84)"}, "[16]": {"conditions": "first HE-related hospitalization, Table 17; 550 mg BID; N = 140; Days [84-140)"}, "[17]": {"conditions": "first HE-related hospitalization, Table 17; 550 mg BID; N = 140; Days [140-168)"}, "[18]": {"conditions": "first study, first HE-related hospitalization, N = 140, treatment interval 0 to <28 days"}, "[19]": {"conditions": "first study, first HE-related hospitalization, N = 140, treatment interval 28 to <56 days"}, "[20]": {"conditions": "first study, first HE-related hospitalization, N = 140, treatment interval 56 to <84 days"}, "[21]": {"conditions": "first study, first HE-related hospitalization, N = 140, treatment interval 84 to <140 days"}, "[22]": {"conditions": "first study, first HE-related hospitalization, N = 140, treatment interval 140 to <168 days"}, "[23]": {"conditions": "first study, first HE-related hospitalization, N = 140, treatment interval ≥168 days"}}, "data": [{"smiles": "CO[C@H]1/C=C/O[C@@]2(C)Oc3c(C)c(O)c4c(O)c(c5c(nc6cc(C)ccn65)c4c3C2=O)NC(=O)/C(C)=C\\C=C\\[C@H](C)[C@H](O)[C@@H](C)[C@@H](O)[C@@H](C)[C@H](OC(C)=O)[C@@H]1C", "note": "[Rifaximin]", "values": [{"measurement": "highest anticipated free plasma exposure", "setting": "[1]", "value": 0.03, "unit": "µM"}, {"measurement": "Change from Baseline in Critical Flicker Frequency Test, Max", "setting": "[2]; [5]", "value": 12, "unit": "Hz"}, {"measurement": "Change from Baseline in Critical Flicker Frequency Test, Mean", "setting": "[2]; [5]", "value": 1.4, "unit": "Hz"}, {"measurement": "Change from Baseline in Critical Flicker Frequency Test, Median", "setting": "[2]; [5]", "value": 1.5, "unit": "Hz"}, {"measurement": "Change from Baseline in Critical Flicker Frequency Test, Min", "setting": "[2]; [5]", "value": "−15", "unit": "Hz"}, {"measurement": "Change from Baseline in Critical Flicker Frequency Test, Max", "setting": "[2]; 550 mg BID, Baseline to EOT", "value": 11, "unit": "Hz"}, {"measurement": "Change from Baseline in Critical Flicker Frequency Test, Mean", "setting": "[2]; 550 mg BID, Baseline to EOT", "value": 0.9, "unit": "Hz"}, {"measurement": "Change from Baseline in Critical Flicker Frequency Test, Median", "setting": "[2]; 550 mg BID, Baseline to EOT", "value": 0.1, "unit": "Hz"}, {"measurement": "Change from Baseline in Critical Flicker Frequency Test, Min", "setting": "[2]; 550 mg BID, Baseline to EOT", "value": "−14", "unit": "Hz"}, {"measurement": "Critical Flicker Frequency Test, Max", "setting": "[2]; 550 mg BID, Day 140", "value": 49, "unit": "Hz"}, {"measurement": "Critical Flicker Frequency Test, Min", "setting": "[2]; 550 mg BID, Day 140", "value": 27, "unit": "Hz"}, {"measurement": "Critical Flicker Frequency Test, Max", "setting": "[2]; 550 mg BID, EOT", "value": 49, "unit": "Hz"}, {"measurement": "Critical Flicker Frequency Test, Median", "setting": "[2]; 550 mg BID, EOT", "value": 37.8, "unit": "Hz"}, {"measurement": "Critical Flicker Frequency Test, Min", "setting": "[2]; 550 mg BID, EOT", "value": 25, "unit": "Hz"}, {"measurement": "Mean changes (±SD) in CFF results", "setting": "[2]; first study, rifaximin group, baseline to end of treatment", "value": "0.945 (±4.75)"}, {"measurement": "hospitalizations reported for the group", "setting": "[3]", "value": 3}, {"measurement": "Cumulative Occurrences of Events", "setting": "[4]; [6]", "value": 23}, {"measurement": "Occurrences of Events", "setting": "[4]; [6]", "value": 0}, {"measurement": "Survival", "setting": "[4]; [6]", "value": 0.8108}, {"measurement": "Cumulative Occurrences of Events", "setting": "[4]; [7]", "value": 6}, {"measurement": "Occurrences of Events", "setting": "[4]; [7]", "value": 6}, {"measurement": "Survival", "setting": "[4]; [7]", "value": 1.0000}, {"measurement": "Cumulative Occurrences of Events", "setting": "[4]; [8]", "value": 10}, {"measurement": "Occurrences of Events", "setting": "[4]; [8]", "value": 4}, {"measurement": "Survival", "setting": "[4]; [8]", "value": 0.9564}, {"measurement": "Cumulative Occurrences of Events", "setting": "[4]; [9]", "value": 15}, {"measurement": "Occurrences of Events", "setting": "[4]; [9]", "value": 5}, {"measurement": "Survival", "setting": "[4]; [9]", "value": 0.9258}, {"measurement": "Cumulative Occurrences of Events", "setting": "[4]; [10]", "value": 20}, {"measurement": "Survival", "setting": "[4]; [10]", "value": 0.8848}, {"measurement": "Cumulative Occurrences of Events", "setting": "[4]; [11]", "value": 23}, {"measurement": "Occurrences of Events", "setting": "[4]; [11]", "value": 3}, {"measurement": "Survival", "setting": "[4]; [11]", "value": 0.8403}, {"measurement": "Cumulative Occurrences of Events", "setting": "[4]; [12]", "value": 19}, {"measurement": "Occurrences of Events", "setting": "[4]; [12]", "value": 0}, {"measurement": "Survival", "setting": "[4]; [12]", "value": 0.8475}, {"measurement": "Cumulative Occurrences of Events", "setting": "[4]; [13]", "value": 4}, {"measurement": "Occurrences of Events", "setting": "[4]; [13]", "value": 4}, {"measurement": "Survival", "setting": "[4]; [13]", "value": 1.0000}, {"measurement": "Cumulative Occurrences of Events", "setting": "[4]; [14]", "value": 8}, {"measurement": "Occurrences of Events", "setting": "[4]; [14]", "value": 4}, {"measurement": "Survival", "setting": "[4]; [14]", "value": 0.9711}, {"measurement": "Cumulative Occurrences of Events", "setting": "[4]; [15]", "value": 12}, {"measurement": "Occurrences of Events", "setting": "[4]; [15]", "value": 4}, {"measurement": "Survival", "setting": "[4]; [15]", "value": 0.9411}, {"measurement": "Cumulative Occurrences of Events", "setting": "[4]; [16]", "value": 17}, {"measurement": "Occurrences of Events", "setting": "[4]; [16]", "value": 5}, {"measurement": "Survival", "setting": "[4]; [16]", "value": 0.9094}, {"measurement": "Cumulative Occurrences of Events", "setting": "[4]; [17]", "value": 19}, {"measurement": "Occurrences of Events", "setting": "[4]; [17]", "value": 2}, {"measurement": "Survival", "setting": "[4]; [17]", "value": 0.8665}, {"measurement": "Cummulative number of events", "setting": "[4]; [18]", "value": 4}, {"measurement": "Number of events", "setting": "[4]; [18]", "value": 4}, {"measurement": "Probability of no HE-related hospitalization", "setting": "[4]; [18]", "value": 1.0000}, {"measurement": "Cummulative number of events", "setting": "[4]; [19]", "value": 8}, {"measurement": "Number of events", "setting": "[4]; [19]", "value": 4}, {"measurement": "Cummulative number of events", "setting": "[4]; [20]", "value": 12}, {"measurement": "Number of events", "setting": "[4]; [20]", "value": 4}, {"measurement": "Cummulative number of events", "setting": "[4]; [21]", "value": 17}, {"measurement": "Number of events", "setting": "[4]; [21]", "value": 5}, {"measurement": "Probability of no HE-related hospitalization", "setting": "[4]; [21]", "value": 0.9094}, {"measurement": "Cummulative number of events", "setting": "[4]; [22]", "value": 19}, {"measurement": "Number of events", "setting": "[4]; [22]", "value": 2}, {"measurement": "Cummulative number of events", "setting": "[4]; [23]", "value": 19}, {"measurement": "Number of events", "setting": "[4]; [23]", "value": 0}, {"measurement": "subjects with HE-related hospitalizations (of 140)", "setting": "[4]; first study, rifaximin group", "value": 19}, {"measurement": "reduction in risk of hospitalization due to HE (HE-related) compared with placebo", "setting": "[4]; first study, 6-month treatment period", "value": 50, "unit": "%"}, {"measurement": "time to first HE related hospitalization vs placebo (FIG. 3, Kaplan Meier)", "setting": "[4]; in vivo", "value": "increased time to hospitalization"}]}]}
